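Method: 48-hour compound exposure of cells in 96-well plates, five concentrations, linear interpolation of endpoints. The concentration for full growth arrest is given as TGI.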
How the values were obtained:
Assay in all cases: NCI tumour cell line growth inhibition, 48 h
A549 NSCLC = system: A549 NSCLC
BT-549 breast = system: BT-549 breast
CAKI-1 renal = system: CAKI-1 renal
CCRF-CEM leukemia = system: CCRF-CEM leukemia
HOP-62 NSCLC = system: HOP-62 NSCLC
HS 578T breast = system: HS 578T breast
IGROV1 ovarian = system: IGROV1 ovarian
K-562 leukemia = system: K-562 leukemia
LOX IMVI melanoma = system: LOX IMVI melanoma
MCF7 breast = system: MCF7 breast
MDA-MB-231 breast = system: MDA-MB-231 breast
OVCAR-5 ovarian = system: OVCAR-5 ovarian
RPMI-8226 leukemia = system: RPMI-8226 leukemia
SF-295 CNS = system: SF-295 CNS
SK-MEL-28 melanoma = system: SK-MEL-28 melanoma
SW-620 colon = system: SW-620 colon
T-47D breast = system: T-47D breast
TK-10 renal = system: TK-10 renal
HCT-15 colon = system: HCT-15 colon
OVCAR-3 ovarian = system: OVCAR-3 ovarian

| SMILES | TGI (A549 NSCLC) | TGI (BT-549 breast) | TGI (CAKI-1 renal) | TGI (CCRF-CEM leukemia) | TGI (HOP-62 NSCLC) | TGI (HS 578T breast) | TGI (IGROV1 ovarian) | TGI (K-562 leukemia) | TGI (LOX IMVI melanoma) | TGI (MCF7 breast) | TGI (MDA-MB-231 breast) | TGI (OVCAR-5 ovarian) | TGI (RPMI-8226 leukemia) | TGI (SF-295 CNS) | TGI (SK-MEL-28 melanoma) | TGI (SW-620 colon) | TGI (T-47D breast) | TGI (TK-10 renal) | TGI (HCT-15 colon) | TGI (OVCAR-3 ovarian) |
| --- | --- | --- | --- | --- | --- | --- | --- | --- | --- | --- | --- | --- | --- | --- | --- | --- | --- | --- | --- | --- |
| CC1=CC(=O)[C@@H](O)[C@]2(C)[C@H]3[C@@]4(O)OC[C@@]35[C@@H](C[C@@H]12)OC(=O)C(OC(=O)CC1=CCCC1)[C@H]5[C@@H](C)[C@H]4O (stereo partly specified) | 8.99 µM | 0.198 µM | 1.63 µM | 0.136 µM | 0.108 µM | 0.136 µM | 0.112 µM | > 100 µM | 0.0653 µM | 0.656 µM | 0.372 µM | 0.687 µM | 0.039 µM | 0.448 µM | 1.25 µM | > 29.5 µM | > 23.2 µM | 0.948 µM |  |  |
| COc1ccccc1/C=C/c1c(N)ncnc1Nc1cccc(Cl)c1 | 41.6 µM | 35.7 µM | 58.9 µM | 1.12 µM | 40 µM | 44 µM | 27.7 µM | > 100 µM |  | > 100 µM | 42.5 µM | > 100 µM | 31.2 µM | 65 µM | 36.4 µM | > 100 µM | > 100 µM | 44.1 µM | 52.5 µM | 59.5 µM |
| COC(=O)Cc1c(/C=C/C(C)(C)n2cnc(CCN3C(=O)CCC3=O)c2)[nH]c2ccccc12 | > 100 µM | > 100 µM | > 100 µM | > 100 µM |  | 89.3 µM | > 100 µM | > 100 µM | > 100 µM | > 100 µM | > 100 µM | > 100 µM |  | > 100 µM | > 100 µM | > 100 µM | 60.1 µM | > 100 µM | > 100 µM | > 100 µM |
| CC(=O)C1=C(C)N2C(=NC3=C(CCc4ccccc43)C2c2cccc(Br)c2)S1 (stereo unspecified) | > 100 µM | > 100 µM |  | > 100 µM | > 100 µM | > 100 µM | > 100 µM |  | > 100 µM | > 100 µM | > 100 µM | > 100 µM | 53.5 µM | > 100 µM | > 100 µM | > 100 µM | > 100 µM |  | > 100 µM | > 100 µM |
| N#Cc1c(-c2cccc(Cl)c2)cc(-c2ccc(Cl)cc2)nc1N | 36.1 µM | 36.4 µM | 86 µM | 48.4 µM | 36.3 µM | 40.5 µM | 24.4 µM | > 100 µM | 31.5 µM | 38.3 µM | 32 µM | 42.9 µM | 48 µM | 32.5 µM |  | 34.2 µM | > 100 µM | 52.2 µM | 32.9 µM | 63.9 µM |
| COC(=O)C(Cc1c(C2Nc3ccccc3C2CC(NC(C)=O)C(=O)OC)[nH]c2ccccc12)NC(C)=O (stereo unspecified) | > 100 µM | > 100 µM | > 100 µM | > 100 µM | > 100 µM | > 100 µM | > 100 µM | > 100 µM | > 100 µM |  | > 100 µM | > 100 µM | > 100 µM | > 100 µM | > 100 µM | > 100 µM | > 100 µM | > 100 µM | > 100 µM | > 100 µM |
| NC(=O)CCC(CCC(N)=O)(CCC(N)=O)[N+](=O)[O-] | > 100 µM | > 100 µM | > 100 µM |  |  | > 100 µM | > 100 µM |  |  | > 100 µM | > 100 µM | > 100 µM | > 100 µM | > 100 µM |  | > 100 µM | > 100 µM | > 100 µM | > 100 µM |  |
| OCCCc1cc(O)c2c(c1)C(CO)C(c1ccc(O)c(O)c1)O2 (stereo unspecified) | > 100 µM | > 100 µM | > 100 µM | > 100 µM | > 100 µM | > 100 µM | > 100 µM | > 100 µM | > 100 µM | > 100 µM | > 100 µM | > 100 µM |  | > 100 µM | > 100 µM | > 100 µM | > 100 µM | > 100 µM | > 100 µM | > 100 µM |
| CC1(C)CCCCCCC2CC2CCCCCC(C)(C)C1=O (stereo unspecified) | > 100 µM | > 100 µM | > 100 µM | 39.4 µM | > 100 µM | > 100 µM | > 100 µM | 98.1 µM | 63.6 µM |  | > 100 µM | > 100 µM | 70.1 µM | > 100 µM | > 100 µM | > 100 µM | > 100 µM | > 100 µM | > 100 µM | > 100 µM |
| CCC(CCN)(CCN)[N+](=O)[O-] | > 100 µM | > 100 µM | > 100 µM |  |  | > 100 µM | > 100 µM | > 100 µM |  | > 100 µM | > 100 µM | > 100 µM | > 100 µM | > 100 µM |  | > 100 µM | > 100 µM |  | > 100 µM |  |

Source: PubChem BioAssay (NCI)
